What was measured:
[1] = test system: SF-295; experiment: Cytotoxicity against human SF295 cells after 48 hrs by sulforhodamine B assay; type: cell-based; settings: sf-295, 48 h
[2] = test system: CCRF-CEM; experiment: Cytotoxicity against human CCRF-CEM cells after 48 hrs by sulforhodamine B assay; type: cell-based
[3] = test system: Mast/stem cell growth factor receptor Kit (Homo sapiens), P10721 [V559D]; experiment: Binding affinity to human KIT V559D mutant at 10 uM incubated for 1 hr by kinase binding assay relative to untreated control
Mast/stem cell growth factor receptor Kit (Homo sapiens), P10721 [V559D], sequence (P10721 whole entry V559D): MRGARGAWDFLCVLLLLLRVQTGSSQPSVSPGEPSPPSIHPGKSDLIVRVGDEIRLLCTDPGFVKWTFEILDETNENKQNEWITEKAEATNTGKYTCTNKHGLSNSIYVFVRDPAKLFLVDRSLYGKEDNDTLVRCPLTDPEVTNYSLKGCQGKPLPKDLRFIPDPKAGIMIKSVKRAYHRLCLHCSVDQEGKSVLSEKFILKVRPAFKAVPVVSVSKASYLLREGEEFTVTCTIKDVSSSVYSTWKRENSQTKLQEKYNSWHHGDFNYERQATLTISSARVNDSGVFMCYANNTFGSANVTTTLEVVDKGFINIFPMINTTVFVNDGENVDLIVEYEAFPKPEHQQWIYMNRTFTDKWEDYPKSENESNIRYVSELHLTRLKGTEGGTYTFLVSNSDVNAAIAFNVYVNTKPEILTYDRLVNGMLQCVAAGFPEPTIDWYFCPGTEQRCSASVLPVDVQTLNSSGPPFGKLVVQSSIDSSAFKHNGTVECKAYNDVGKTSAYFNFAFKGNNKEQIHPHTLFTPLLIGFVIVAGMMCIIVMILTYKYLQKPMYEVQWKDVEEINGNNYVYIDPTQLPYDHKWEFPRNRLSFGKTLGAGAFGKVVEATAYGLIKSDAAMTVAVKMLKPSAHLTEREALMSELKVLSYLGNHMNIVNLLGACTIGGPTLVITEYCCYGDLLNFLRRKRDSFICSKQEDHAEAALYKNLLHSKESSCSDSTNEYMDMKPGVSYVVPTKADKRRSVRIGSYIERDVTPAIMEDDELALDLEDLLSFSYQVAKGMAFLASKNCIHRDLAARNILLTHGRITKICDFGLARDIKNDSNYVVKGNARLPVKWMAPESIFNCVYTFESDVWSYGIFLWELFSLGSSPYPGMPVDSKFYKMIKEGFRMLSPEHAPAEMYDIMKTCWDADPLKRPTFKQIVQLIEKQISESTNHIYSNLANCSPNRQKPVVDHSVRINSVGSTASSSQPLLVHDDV

[4] = test system: IGROV-1; experiment: Growth inhibition of human IGROV1 cells after 48 hrs by sulforhodamine B assay; type: functional; settings: IGROV-1, 48 h
[5] = test system: Platelet-derived growth factor receptor alpha (Homo sapiens), P16234 [D842V]; experiment: Inhibition of human PDGFRA D842V using gamma-33P-ATP as substrate assessed as enzyme functional activity at 1 uM by scintillation counting relative to untreated control; set-up: scale not given: the % may be the effect or the level left
Platelet-derived growth factor receptor alpha (Homo sapiens), P16234 [D842V], sequence (P16234 whole entry D842V): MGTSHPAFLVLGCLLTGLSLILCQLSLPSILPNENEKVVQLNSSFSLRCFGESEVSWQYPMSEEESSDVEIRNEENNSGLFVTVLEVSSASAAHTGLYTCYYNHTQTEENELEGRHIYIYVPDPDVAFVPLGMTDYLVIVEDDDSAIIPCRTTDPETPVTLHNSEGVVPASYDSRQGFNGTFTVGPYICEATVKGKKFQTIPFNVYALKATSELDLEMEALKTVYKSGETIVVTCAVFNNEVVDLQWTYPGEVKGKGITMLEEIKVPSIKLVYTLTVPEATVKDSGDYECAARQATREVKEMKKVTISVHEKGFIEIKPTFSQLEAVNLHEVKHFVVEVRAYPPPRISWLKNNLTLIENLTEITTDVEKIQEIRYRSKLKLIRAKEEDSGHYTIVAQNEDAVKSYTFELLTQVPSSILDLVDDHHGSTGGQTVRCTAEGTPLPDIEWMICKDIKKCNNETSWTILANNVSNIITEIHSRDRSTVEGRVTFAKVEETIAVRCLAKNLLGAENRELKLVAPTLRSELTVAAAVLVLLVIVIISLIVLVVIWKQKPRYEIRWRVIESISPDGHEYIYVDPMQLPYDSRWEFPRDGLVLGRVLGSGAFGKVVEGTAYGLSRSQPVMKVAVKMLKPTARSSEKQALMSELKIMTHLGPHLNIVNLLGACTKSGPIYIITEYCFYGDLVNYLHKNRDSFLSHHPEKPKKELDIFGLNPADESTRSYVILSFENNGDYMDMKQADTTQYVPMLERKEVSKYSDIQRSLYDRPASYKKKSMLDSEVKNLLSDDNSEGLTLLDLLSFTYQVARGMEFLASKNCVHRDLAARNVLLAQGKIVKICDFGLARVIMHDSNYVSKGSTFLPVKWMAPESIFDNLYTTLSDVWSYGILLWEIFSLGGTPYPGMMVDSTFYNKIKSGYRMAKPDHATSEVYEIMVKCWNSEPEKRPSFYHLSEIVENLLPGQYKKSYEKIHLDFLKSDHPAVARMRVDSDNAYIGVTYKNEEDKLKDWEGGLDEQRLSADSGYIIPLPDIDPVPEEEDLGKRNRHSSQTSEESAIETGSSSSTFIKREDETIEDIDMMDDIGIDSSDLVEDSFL

[6] = test system: Hs-578T; experiment: Growth inhibition of human Hs578T cells after 48 hrs by sulforhodamine B assay; type: functional
[7] = test system: SK-MEL-28; experiment: Growth inhibition of human SK-MEL-28 cells after 48 hrs by sulforhodamine B assay; type: functional; settings: SK-MEL-28, 48 h
[8] = test system: MCF7; experiment: Growth inhibition of human MCF7 cells after 48 hrs by sulforhodamine B assay; type: functional; settings: MCF7, 48 h
[9] = test system: OVCAR-4; experiment: Growth inhibition of human OVCAR4 cells after 48 hrs by sulforhodamine B assay; type: functional; settings: OVCAR-4, 48 h
[10] = test system: M14; experiment: Growth inhibition of human M14 cells after 48 hrs by sulforhodamine B assay; type: functional; settings: M14, 48 h
[11] = test system: SF-295; experiment: Growth inhibition of human SF295 cells after 48 hrs by sulforhodamine B assay; type: functional; settings: SF-295, 48 h
[12] = test system: Mast/stem cell growth factor receptor Kit (Homo sapiens), P10721 [L576P]; experiment: Binding affinity to human KIT L576P mutant at 10 uM incubated for 1 hr by kinase binding assay relative to untreated control
Mast/stem cell growth factor receptor Kit (Homo sapiens), P10721 [L576P], sequence (P10721 whole entry L576P): as the sequence (P10721 whole entry V559D) above, with D559V, L576P counted along it

[13] = test system: HCC 2998; experiment: Growth inhibition of human HCC2998 cells after 48 hrs by sulforhodamine B assay; type: functional; settings: HCC 2998, 48 h
[14] = test system: SK-MEL-5; experiment: Growth inhibition of human SK-MEL-5 cells after 48 hrs by sulforhodamine B assay; type: functional; settings: SK-MEL-5, 48 h
[15] = target: T1, Receptor-type tyrosine-protein kinase FLT3 (Homo sapiens, UniProt P36888); experiment: Binding affinity to human FLT3 incubated for 1 hr by kinase binding assay
T1 sequence (P36888 whole entry): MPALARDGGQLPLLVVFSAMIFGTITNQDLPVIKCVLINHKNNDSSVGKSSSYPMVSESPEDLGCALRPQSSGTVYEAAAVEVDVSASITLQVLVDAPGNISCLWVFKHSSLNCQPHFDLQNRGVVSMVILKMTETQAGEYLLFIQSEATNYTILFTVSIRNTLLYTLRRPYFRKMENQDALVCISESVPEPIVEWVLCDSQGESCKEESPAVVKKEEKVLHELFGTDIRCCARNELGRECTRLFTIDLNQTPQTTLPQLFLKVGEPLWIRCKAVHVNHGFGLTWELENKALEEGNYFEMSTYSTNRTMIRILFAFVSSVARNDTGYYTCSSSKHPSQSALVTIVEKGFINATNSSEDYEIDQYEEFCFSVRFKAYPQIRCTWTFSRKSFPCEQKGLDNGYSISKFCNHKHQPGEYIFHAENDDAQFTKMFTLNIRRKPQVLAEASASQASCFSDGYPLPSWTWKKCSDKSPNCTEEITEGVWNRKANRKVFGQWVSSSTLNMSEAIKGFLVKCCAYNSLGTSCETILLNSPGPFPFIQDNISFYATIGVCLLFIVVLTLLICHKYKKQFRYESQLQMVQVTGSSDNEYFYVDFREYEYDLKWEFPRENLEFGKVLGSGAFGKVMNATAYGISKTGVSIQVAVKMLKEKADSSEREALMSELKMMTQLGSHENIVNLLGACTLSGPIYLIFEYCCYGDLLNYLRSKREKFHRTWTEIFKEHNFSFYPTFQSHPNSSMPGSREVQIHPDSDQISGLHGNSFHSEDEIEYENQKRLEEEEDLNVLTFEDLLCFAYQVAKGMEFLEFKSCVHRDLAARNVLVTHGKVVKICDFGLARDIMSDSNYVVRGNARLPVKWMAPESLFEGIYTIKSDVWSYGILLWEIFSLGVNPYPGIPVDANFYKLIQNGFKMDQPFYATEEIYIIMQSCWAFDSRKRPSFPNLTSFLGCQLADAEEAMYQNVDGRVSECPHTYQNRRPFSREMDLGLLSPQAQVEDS

[16] = target: T1, Receptor-type tyrosine-protein kinase FLT3; experiment: Inhibition of human FLT3 using gamma-33P-ATP as substrate by scintillation counting
[17] = test system: NCI-H23; experiment: Growth inhibition of human NCI-H23 cells after 48 hrs by sulforhodamine B assay; type: functional; settings: NCI-H23, 48 h
[18] = test system: EKVX; experiment: Growth inhibition of human EKVX cells after 48 hrs by sulforhodamine B assay; type: functional
[19] = test system: MOLT-4; experiment: Growth inhibition of human MOLT4 cells after 48 hrs by sulforhodamine B assay; type: functional; settings: MOLT-4, 48 h
[20] = test system: MDA-MB-468; experiment: Growth inhibition of human MDA-MB-468 cells after 48 hrs by sulforhodamine B assay; type: functional; settings: MDA-MB-468, 48 h

Structure (SMILES) | LC50 [1] [µM] | LC50 [2] [µM] | Activity [3] [%] | TGI [4] [µM] | Activity [5] [%] | TGI [6] [µM] | TGI [7] [µM] | TGI [8] [µM] | TGI [9] [µM] | TGI [10] [µM] | TGI [11] [µM] | Activity [12] [%] | TGI [13] [µM] | TGI [14] [µM] | Kd [15] [µM] | IC50 [16] [µM] | TGI [17] [µM] | TGI [18] [µM] | TGI [19] [µM] | TGI [20] [µM]
CCc1cnc(N2CCN(C(=O)c3ccc(CNc4ncnc5ccccc45)cc3)CC2)nc1 | > 100 | > 100 | > 50 | 49.8 | 100 | > 100 | > 100 | 72.8 | 58.8 | 32.7 | 23.1 | > 50 |  |  |  |  |  |  |  | 
c1ccc(Cc2cnc(N3CCN(c4ncnc5ccccc45)CC3)nc2)cc1 |  | > 100 |  | 63.3 |  |  | 99.3 | 58.2 |  | 26.3 |  |  | 60.9 | 13.9 | 0.46 | 6.69 | 30.8 | 33.1 | 40.6 | 
O=C(c1cccc(Nc2ncnc3ccccc23)c1)N1CCN(c2ncc(Cc3ccccc3)cn2)CC1 | > 100 |  | > 50 |  | 96 | 7.41 |  |  |  |  |  | > 50 | 3.98 | 1.2 |  |  | 2.69 | 4.9 |  | 3.47

— ChEMBL document CHEMBL1782045, “Discovery, synthesis, and investigation of the antitumor activity of novel piperazinylpyrimidine derivatives” (Eur J Med Chem, 2011)
